# Assay results taken from ChEMBL document CHEMBL4118098, “Discovery of DS28120313 as a potent orally active hepcidin production inhibitor: Design and optimization of novel 4,6-disubstituted indazole derivatives” (Bioorg Med Chem Lett, 2017).
# Legend:
# [1] = molecular target: Serine/threonine-protein kinase pim-2 (Homo sapiens) (UniProt Q9P1W9); assay: Inhibition of PIM2 (unknown origin) at 0.45 uM relative to control
# [2] = molecular target: T1, Testis-specific serine/threonine-protein kinase 1 (Homo sapiens) (UniProt Q9BXA7); assay: Inhibition of TSSK1 (unknown origin) at 0.45 uM relative to control
# T1 sequence (whole entry): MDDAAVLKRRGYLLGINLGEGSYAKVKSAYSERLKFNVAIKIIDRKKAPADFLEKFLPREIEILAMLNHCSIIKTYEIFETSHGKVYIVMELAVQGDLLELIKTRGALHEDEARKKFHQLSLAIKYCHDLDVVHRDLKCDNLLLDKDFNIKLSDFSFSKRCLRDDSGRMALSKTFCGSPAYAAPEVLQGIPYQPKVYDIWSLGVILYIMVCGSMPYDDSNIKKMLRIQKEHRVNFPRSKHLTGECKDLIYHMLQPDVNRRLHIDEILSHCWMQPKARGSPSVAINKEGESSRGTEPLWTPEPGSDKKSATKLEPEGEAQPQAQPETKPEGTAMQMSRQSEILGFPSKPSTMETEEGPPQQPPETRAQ
# [3] = molecular target: Activated CDC42 kinase 1 (Homo sapiens) (UniProt Q07912); assay: Inhibition of ACK (unknown origin) at 0.45 uM relative to control
# [4] = molecular target: Rho-associated protein kinase 1 (Homo sapiens) (UniProt Q13464); assay: Inhibition of ROCK1 (unknown origin) at 0.45 uM relative to control
# [5] = tested on: Tyrosine-protein kinase ABL1 (Homo sapiens), P00519 [G250E]; assay: Inhibition of ABL1 G250E mutant (unknown origin) at 0.19 uM relative to control
# [6] = molecular target: Interleukin-1 receptor-associated kinase 1 (Homo sapiens) (UniProt P51617); assay: Inhibition of IRAK1 (unknown origin) at 0.19 uM relative to control
# [7] = molecular target: T2, AMPK alpha2/beta1/gamma1 (Homo sapiens) (UniProt P54646+P54619+Q9Y478); assay: Inhibition of AMPK-alpha2/beta1/gamma1 (unknown origin) at 0.19 uM relative to control; assay type: protein-complex assay
# [8] = molecular target: Protein kinase C beta type (Homo sapiens) (UniProt P05771); assay: Inhibition of PKC-beta2 (unknown origin) at 0.19 uM relative to control
# [9] = molecular target: Serine/threonine-protein kinase 10 (Homo sapiens) (UniProt O94804); assay: Inhibition of LOK (unknown origin) at 0.19 uM relative to control
# [10] = molecular target: Tyrosine-protein kinase FRK (Homo sapiens) (UniProt P42685); assay: Inhibition of FRK (unknown origin) at 0.19 uM relative to control
# [11] = molecular target: Mitogen-activated protein kinase kinase kinase kinase 4 (Homo sapiens) (UniProt O95819); assay: Inhibition of HGK (unknown origin) at 0.19 uM relative to control
# [12] = molecular target: T3, Protein kinase C iota type (Homo sapiens) (UniProt P41743); assay: Inhibition of PKC-iota (unknown origin) at 0.19 uM relative to control
# T3 sequence (whole entry): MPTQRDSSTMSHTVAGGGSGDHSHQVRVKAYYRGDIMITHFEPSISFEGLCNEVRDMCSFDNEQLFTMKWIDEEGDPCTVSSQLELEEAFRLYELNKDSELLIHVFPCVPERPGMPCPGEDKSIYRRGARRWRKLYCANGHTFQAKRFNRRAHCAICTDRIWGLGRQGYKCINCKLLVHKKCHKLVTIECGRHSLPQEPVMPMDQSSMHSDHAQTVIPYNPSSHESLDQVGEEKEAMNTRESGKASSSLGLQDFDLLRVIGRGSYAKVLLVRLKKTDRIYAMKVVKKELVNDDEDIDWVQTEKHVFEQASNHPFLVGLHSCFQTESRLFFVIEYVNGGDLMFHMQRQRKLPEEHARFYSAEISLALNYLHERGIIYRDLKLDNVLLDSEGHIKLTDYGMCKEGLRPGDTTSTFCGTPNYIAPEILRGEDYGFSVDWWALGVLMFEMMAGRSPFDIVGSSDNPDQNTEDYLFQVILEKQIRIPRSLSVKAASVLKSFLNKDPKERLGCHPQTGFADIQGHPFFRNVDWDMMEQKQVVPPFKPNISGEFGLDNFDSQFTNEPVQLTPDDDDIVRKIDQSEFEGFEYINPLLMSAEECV
# [13] = molecular target: Ribosomal protein S6 kinase alpha-2 (Homo sapiens) (UniProt Q15349); assay: Inhibition of RSK3 (unknown origin) at 0.19 uM relative to control
# [14] = molecular target: Protein kinase C eta type (Homo sapiens) (UniProt P24723); assay: Inhibition of PKC-eta (unknown origin) at 0.19 uM relative to control
# [15] = molecular target: Dual specificity tyrosine-phosphorylation-regulated kinase 4 (Homo sapiens) (UniProt Q9NR20); assay: Inhibition of DYRK4 (unknown origin) at 0.19 uM relative to control
# [16] = molecular target: Mitogen-activated protein kinase 1 (Homo sapiens) (UniProt P28482); assay: Inhibition of Erk2 (unknown origin) at 0.19 uM relative to control
# [17] = molecular target: Rho-associated protein kinase 1 (Homo sapiens) (UniProt Q13464); assay: Inhibition of ROCK1 (unknown origin) at 0.19 uM relative to control
# [18] = molecular target: Inhibitor of nuclear factor kappa-B kinase subunit epsilon (Homo sapiens) (UniProt Q14164); assay: Inhibition of IKBKE (unknown origin) at 0.164 uM relative to control
# [19] = molecular target: MAP kinase-activated protein kinase 2 (Homo sapiens) (UniProt P49137); assay: Inhibition of MAPKAPK2 (unknown origin) at 0.164 uM relative to control
# [20] = molecular target: T2, AMPK alpha2/beta1/gamma1 (Homo sapiens); assay: Inhibition of AMPK-alpha2/beta1/gamma1 (unknown origin) at 0.164 uM relative to control; assay type: protein-complex assay
# [21] = molecular target: T4, MAP kinase-activated protein kinase 5 (Homo sapiens) (UniProt Q8IW41); assay: Inhibition of PRAK (unknown origin) at 0.164 uM relative to control
# T4 sequence (whole entry): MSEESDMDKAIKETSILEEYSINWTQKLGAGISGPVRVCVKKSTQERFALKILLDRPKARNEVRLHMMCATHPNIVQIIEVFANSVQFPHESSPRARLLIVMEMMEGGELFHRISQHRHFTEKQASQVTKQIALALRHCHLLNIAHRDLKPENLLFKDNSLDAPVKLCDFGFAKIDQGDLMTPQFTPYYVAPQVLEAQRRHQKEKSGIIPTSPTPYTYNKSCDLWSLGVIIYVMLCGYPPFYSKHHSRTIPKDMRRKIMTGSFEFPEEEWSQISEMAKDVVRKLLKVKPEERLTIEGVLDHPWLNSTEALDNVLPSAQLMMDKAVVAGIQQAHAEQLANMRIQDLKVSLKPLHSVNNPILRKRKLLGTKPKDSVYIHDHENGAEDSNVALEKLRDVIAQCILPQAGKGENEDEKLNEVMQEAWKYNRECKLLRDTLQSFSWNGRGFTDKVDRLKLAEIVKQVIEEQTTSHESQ
# [22] = molecular target: Serine/threonine-protein kinase Sgk1 (Homo sapiens) (UniProt O00141); assay: Inhibition of SGK1 (unknown origin) at 0.164 uM relative to control
smiles,measurement,setting,value
Cc1n[nH]c(C)c1-c1ccc2c(NC(=O)c3ccc(N4CCN(C)CC4)cc3)n[nH]c2c1,inhibition,[1],-1.7%
same,inhibition,[2],-1%
same,inhibition,[3],13%
same,inhibition,[4],-2%
Cc1[nH]nc(C2CC2)c1-c1ccc2c(-c3ccc(N4CCN(C)CC4)nc3)n[nH]c2c1,inhibition,[5],68.3%
same,inhibition,[6],-2.7%
same,inhibition,[7],13.7%
same,inhibition,[8],0.3%
same,inhibition,[9],4.3%
same,inhibition,[10],3.3%
same,inhibition,[11],72%
same,inhibition,[12],-7%
same,inhibition,[13],-2.3%
same,inhibition,[14],2.7%
same,inhibition,[15],-0.7%
same,inhibition,[16],4.7%
same,inhibition,[17],-7.3%
COC(=O)Nc1cc(-c2c(C3CC3)n[nH]c2C)cc2[nH]ncc12,inhibition,[18],0.3%
same,inhibition,[19],7%
same,inhibition,[20],0.3%
same,inhibition,[21],3.3%
same,inhibition,[22],0.3%
